Experimental data reported in patent US7855297B2, “Amide derivatives and medicinal use thereof” (Mitsubishi Tanabe Pharma Corporation, priority 2000, dated 2010).
Counter-ions that a name gives are not always drawn.

| SMILES | melting point |
| --- | --- |
| COc1ccc(N(Cc2ccc(N(C)C)cc2)C(=O)C2CCCc3ccc(F)cc32)cc1 (stereo not shown) (as salt: hydrochloride) (hydrate or solvate) [Example 128, N-[(4-dimethylaminophenyl)methyl]-7-fluoro-N-(4-methoxyphenyl)-1,2,3,4-tetrahydronaphthalene-1-carboxamide hydrochloride ½ hydrate] | 125.4 °C |
| CC(C)c1ccc(N(Cc2ccc(N(C)C)cc2)C(=O)C2CCCc3c(OCCN(C)C)cccc32)cc1 (stereo not shown) (as salt: oxalate) (hydrate or solvate) [Example 113, 5-[2-(dimethylamino)ethoxy]-N-[(4-dimethylaminophenyl)methyl]-N-(4-isopropylphenyl)-1,2,3,4-tetrahydronaphthalene-1-carboxamide oxalate ¼ hydrate] | 155.7 °C |
| CCn1cc(CN(C(=O)C2CCCc3c(OCCCN(C)C)cccc32)c2ccc(C(C)C)cc2)cn1 (stereo not shown) (as salt: oxalate) [Example 267, 5-[3-(dimethylamino)propoxy]-N-[(1-ethylpyrazol-4-yl)methyl]-N-(4-isopropylphenyl)-1,2,3,4-tetrahydronaphthalene-1-carboxamide 3/2 oxalate] | 142.6 °C |
| CC(C)c1ccc(N(Cc2ccc(N(C)C)cc2)C(=O)C2CCCc3cc(OCCN(C)C)ccc32)cc1 (stereo not shown) (hydrate or solvate) [Example 106, 6-[2-(dimethylamino)ethoxy]-N-[(4-dimethylaminophenyl)methyl]-N-(4-isopropylphenyl)-1,2,3,4-tetrahydronaphthalene-1-carboxamide ⅕ hydrate] | 132.6 °C |
| CCc1ccc(N(Cc2ccc(N(C)C)cc2)C(=O)C2CCCc3ccccc32)cc1 (stereo not shown) [Example 1, N-[(4-dimethylaminophenyl)methyl]-N-(4-ethylphenyl)-1,2,3,4-tetrahydronaphthalene-1-carboxamide] | 109 to 110 °C |
| CC(C)COc1ccc(Br)cc1N(Cc1ccc(N(C)C)cc1)C(=O)C1CCCc2ccccc21 (stereo not shown) [Example 5, N-(5-bromo-2-isobutoxyphenyl)-N-[(4-dimethylaminophenyl)methyl]-1,2,3,4-tetrahydronaphthalene-1-carboxamide] | 176 to 178 °C |
| CC(C)c1ccc(N(Cc2ccc(N(C)C)cc2)C(=O)C2CCCc3c(O)cccc32)cc1 (stereo not shown) [Example 17, N-[(4-dimethylaminophenyl)methyl]-5-hydroxy-N-(4-isopropylphenyl)-1,2,3,4-tetrahydronaphthalene-1-carboxamide] | 200 to 202 °C |
| CC(C)c1ccc(N(Cc2ccc(N(C)C)cc2)C(=O)C2CCCc3cc(O)ccc32)cc1 (stereo not shown) [Example 37, N-[(4-dimethylaminophenyl)methyl]-6-hydroxy-N-(4-isopropylphenyl)-1,2,3,4-tetrahydronaphthalene-1-carboxamide] | 169 to 171 °C |
| CC(C)c1ccc(N(Cc2ccc(N(C)C)cc2)C(=S)C2CCCc3ccccc32)cc1 (stereo not shown) [Example 54, N-[(4-dimethylaminophenyl)methyl]-N-(4-isopropylphenyl)-1,2,3,4-tetrahydronaphthalene-1-carbothioamide] | 123 to 125 °C |
| COc1ccc(CN(C(=O)C2CCCc3c(O)cccc32)c2ccc(C(C)C)nc2)c(OC)n1 (stereo not shown) [Example 133, N-[(2,6-dimethoxypyridin-3-yl)methyl]-5-hydroxy-N-(6-isopropylpyridin-3-yl)-1,2,3,4-tetrahydronaphthalene-1-carboxamide] | 164 °C |
| CC(C)c1ccc(N(Cc2cnn(CCN(C)C)c2)C(=O)C2CCCc3c(O)cccc32)cc1 (stereo not shown) [Example 355, N-({1-[2-(dimethylamino)ethyl]pyrazol-4-yl}methyl)-5-hydroxy-N-(4-isopropylphenyl)-1,2,3,4-tetrahydronaphthalene-1-carboxamide] | 92 °C |
| CC(C)c1ccc(N(Cc2cnn(CCO)c2)C(=O)C2CCCc3c(O)cccc32)cc1 (stereo not shown) [Example 362, 5-hydroxy-N-{[1-(2-hydroxyethyl)pyrazol-4-yl]methyl}-N-(4-isopropylphenyl)-1,2,3,4-tetrahydronaphthalene-1-carboxamide] | 110 to 114 °C |
| CC(C)c1ccc(N(Cc2cnn(CC(F)(F)F)c2)C(=O)C2CCCc3c(O)cccc32)cn1 (stereo not shown) [Example 435, 5-hydroxy-N-(6-isopropylpyridin-3-yl)-N-{[1-(2,2,2-trifluoroethyl)pyrazol-4-yl]methyl}-1,2,3,4-tetrahydronaphthalene-1-carboxamide] | 127.7 °C |

Results, then the compound that gave them:

| melting point | SMILES |
| --- | --- |
| 158 to 160 °C | COc1ccc2c(c1)C(C(=O)N(Cc1ccc(N(C)C)nc1)c1ccc(C(C)C)cc1)CCC2 (stereo not shown) (as salt: hydrochloride) (hydrate or solvate) [Example 55, N-[(6-dimethylaminopyridin-3-yl)methyl]-N-(4-isopropylphenyl)-7-methoxy-1,2,3,4-tetrahydronaphthalene-1-carboxamide hydrochloride ½ hydrate] |
| 108 to 110 °C | COc1ccc(CN(C(=O)C2CCCc3ccc(OC)cc32)c2ccc(C(C)C)cc2)nc1 (stereo not shown) (as salt: hydrochloride) (hydrate or solvate) [Example 56, N-(4-isopropylphenyl)-N-[(5-methoxypyridin-2-yl)methyl]-7-methoxy-1,2,3,4-tetrahydronaphthalene-1-carboxamide hydrochloride ½ hydrate] |
| 114 to 117 °C | COc1ccc2c(c1)C(C(=O)N(Cc1ccc(OC)nc1)c1ccc(C(C)C)cc1)CCC2 (stereo not shown) (as salt: hydrochloride) [Example 46, N-(4-isopropylphenyl)-N-[(6-methoxypyridin-3-yl)methyl]-7-methoxy-1,2,3,4-tetrahydronaphthalene-1-carboxamide monohydrochloride] |
| 165.6 °C | CC(C)c1ccc(N(Cc2ccc(N(C)C)cc2)C(=O)C2CCCc3ccc(F)cc32)cc1 (stereo not shown) (as salt: hydrochloride) [Example 127, N-[(4-dimethylaminophenyl)methyl]-7-fluoro-N-(4-isopropylphenyl)-1,2,3,4-tetrahydronaphthalene-1-carboxamide hydrochloride] |
| 104 to 113 °C | COc1ccc2c(c1)C(C(=O)N(Cc1ccc(N(C)C)cc1)c1ccc(Br)cc1)CCC2 (stereo not shown) (as salt: hydrochloride) [Example 200, N-(4-bromophenyl)-N-[(4-dimethylaminophenyl)methyl]-7-methoxy-1,2,3,4-tetrahydronaphthalene-1-carboxamide hydrochloride] |
| 214 to 217 °C | CC(C)c1ccc(N(Cc2ccc(N(C)C)cc2)C(=O)C2CCCc3ccc(O)cc32)cc1 (stereo not shown) [Example 20, N-[(4-dimethylaminophenyl)methyl]-7-hydroxy-N-(4-isopropylphenyl)-1,2,3,4-tetrahydronaphthalene-1-carboxamide] |
| 131 to 132 °C | COc1ccc2c(c1)C(C(=O)N(Cc1ccc(S(C)(=O)=O)cc1)c1ccc(C(C)C)cc1)CCC2 (stereo not shown) [Example 35, N-(4-isopropylphenyl)-N-[(4-methylsulfonylphenyl)methyl]-7-methoxy-1,2,3,4-tetrahydronaphthalene-1-carboxamide] |
| 143.2 °C | COc1ccc2c(c1)C(C(=O)N(Cc1ccc(CO)cc1)c1ccc(C(C)C)cc1)CCC2 (stereo not shown) [Example 95, N-{[4-(hydroxymethyl)phenyl]methyl}-N-(4-isopropylphenyl)-7-methoxy-1,2,3,4-tetrahydronaphthalene-1-carboxamide] |
| 115 to 117 °C | COc1ccc2c(c1)C(C(=O)N(Cc1ccc(N)cc1)c1ccc(C(C)C)cc1)CCC2 (stereo not shown) [Example 167, N-[(4-aminophenyl)methyl]-N-(4-isopropylphenyl)-7-methoxy-1,2,3,4-tetrahydronaphthalene-1-carboxamide] |
